From PMC10455244, “Alpha-Mangostin: A Potent Inhibitor of TRPV3 and Pro-Inflammatory Cytokine Secretion in Keratinocytes” (International Journal of Molecular Sciences, 2023)

Tested on: TNF-α
Assay: ELISA, TNF-α release in NHEK
Format: cell-based, human
Conditions: 1 µM with 300 µM carvacrol, 24 h
Description: Constitutive activation of TRPV3 due to continuous stimulation or the presence of Olmsted mutations causes noticeable skin inflammation due to the increased secretion of pro-inflammatory cytokines from the keratinocytes. Besides, in atopic dermatitis (AD), cytokine release from keratinocytes contributes to the inflammatory environment, which drives many characteristic AD symptoms. Therefore, we determined the effect of TRPV3 activation on cytokine release instead of TRPV3 expression and evaluated whether alpha-mangostin suppressed TRPV3-mediated cytokine secretion in normal human keratinocytes. The levels of secreted cytokines (interleukin (IL)-6, IL-8, and tumor necrosis factor-alpha (TNF-α)) were measured using enzyme-linked Immunosorbent assay (ELISA) kits due to their high sensitivity and quantitation ability. The cells were induced with 300 µM carvacrol, with or without 1 µM alpha-mangostin, and 10 µM 74a.
Figure 5 Alpha-mangostin (α-MG) inhibited carvacrol-induced cytokine release in NHEK cells and rescued carvacrol-induced cell death. (A) Alpha-mangostin inhibited the carvacrol-induced release of IL-8 and IL-6 in NHEK. Cells were induced by 300 µM carvacrol with or without either 1 µM alpha-mangostin or 10 µM 74a for 24 h before the ELISA assay. (B) Alpha-mangostin reduced cell death caused by carvacrol in human keratinocytes. […]

## COc1c(O)cc2oc3cc(O)c(CC=C(C)C)c(O)c3c(=O)c2c1CC=C(C)C [Alpha-mangostin]
  Effect on TNF-α levels: no changes
